According to patent publication US20250304575A1, “COMPOUNDS AND PHARMACEUTICAL COMPOSITIONS THEREOF FOR THE TREATMENT OF NEURODEGENERATIVE DISORDERS” (Galapagos NV, priority 2022, published 2025):

System: Aβ1-42-injected mice (short-term spatial memory)
Test: Alzheimer's disease mouse model using intrahippocampal injection of oligomers of amyloid beta; forced alternation Y-maze test
Assay type: in vivo, C57BL6 mice
Details: for Cumulative duration (sec) in the new arm of the Y-maze: Aβ1-42 (2 μL/side, 100 μM) injected mice, n = 12, daily treatment, Compounds 5 mg/kg p.o., Donepezil 1 mg/kg i.p., group mean, Aβ1-42 + vehicle group 78.9, sham 115.5
[1] = compared to Aβ1-42-injected, vehicle treated mice (group ID 2), 5 mg/kg p.o. daily

Experimental: This study evaluated the cognitive functions of the mice after a chronic administration of the compounds, after the ApO injury.
The forced alternation Y-maze test relies on the natural tendency of rodents to explore new environments and was used to evaluate short-term spatial memory and exploratory behavior of injured mice.
18-month-old male C57BL6 mice (Janvier Labs) were housed for acclimatation for 1 week in Neuro-Sys facilities and were maintained in a reversed 12 h light-dark cycle. The animals were group-housed (2-4 animals per cage) and maintained in room with controlled temperature (21-22° C.) and hygrometry (40-60%) and with food and water available ad libitum.
After one week of acclimatization, all the mice were subjected to a bilateral hippocampal stereotaxic surgery determined relative to the bregma according to the Paxinos and Franklin's mouse brain atlas(Yeung et al. 2020).
The Aβ1-42 preparation were done following the procedure described by Callizot (Callizot et al. 2013). Briefly, Aβ1-42 peptide (Bachem, 1071428, CAS #107761-42-2) was dissolved in the vehicle (0.5% Methylcellulose in water (w/v)), at an initial concentration of 100 μM. This solution was gently agitated for 3 days at 37° C. in the dark.
After agitation, the Aβ1-42 preparation were bilaterally injected into the stratum oriens, striatum pyramidal and striatum radiatum of the CA1 area of the hippocampus at three different depths within the CA1 region. Stereotaxic bilateral administration of 2 μL/side of Aβ1-42 preparation (100 μM, containing ˜15 mol/L of oligomers precisely measured by automatic WB), or vehicle, were bilaterally injected with a Hamilton syringe in the CA 1 area of the hippocampus (0.2 μL/min with an Elite Nanomite syringe pump).
All treatments started the day before the stereotaxic injections of A31-42 and were administrated daily until the last day of the experiment at which point different tissue samples were collected.
Test compounds were administered by oral gavage (p.o.).
Preparation with vehicle 1: The required amount of the test compound was weighted and placed in a glass tube. The compound was dissolved in 0.5% Methylcellulose in water (w/v) corresponding to 100% of the final volume and vortexed. The formulation (glass vial) was placed in an ultrasonic bath for 30 min.
Preparation with vehicle 2: The required amount of the test compound was weighted and placed in a glass tube. The compound was dissolved in a volume PEG200 corresponding to 25% of the final volume (at 4× concentration). The preparation was aliquoted in tubes protected from light and stored at 4° C. Before administration, a volume of MC (0.5%, w/v in sterile water) corresponding to 75% of the final volume (for 1× concentration) was added to the preparation and vortexed. The formulation (glass vial) was placed in an ultrasonic bath for homogenization. The glass vial containing the preparation was kept under agitation and protected from light until administration.
The Y-maze was used to assess short term memory (working memory) in mice. Spatial reference memory, which is underlined by the hippocampus, was tested by placing the test mice into the Y-maze with one arm closed off during training. After an intertrial interval, the mouse should remember which arm it has not explored previously and should visit this arm more often (Kraeuter, Guest, and Samyai 2019).

## CN(C)S(=O)(=O)C1CN(c2cc3nn(-c4ccc(F)cc4)cc3cn2)C1 [Compound 14, 1-(2-(4-fluorophenyl)-2H-pyrazolo[4,3-c]pyridin-6-yl)-N,N-dimethylazetidine-3-sulfonamide]
  Cumulative duration (sec) in the new arm of the Y-maze: 112.5 s
[1]
  Effect on short-term spatial memory (Y-maze), day 7 post-surgery: significant beneficial effects
Day 14 post-surgery, compared to Aβ1-42-injected, vehicle treated mice (group ID 2), 5 mg/kg p.o. daily
  Effect on short-term spatial memory (Y-maze), day 14 post-surgery: significant beneficial effects

## CN(C)S(=O)(=O)C1CN(c2ccc3cn(-c4ccccc4)nc3n2)C1 [Compound 66, N,N-dimethyl-1-(2-phenyl-2H-pyrazolo[3,4-b]pyridin-6-yl)azetidine-3-sulfonamide]
  Cumulative duration (sec) in the new arm of the Y-maze: 104.4 s
[1]
  Effect on short-term spatial memory (Y-maze), day 7 post-surgery: significant beneficial effects
